Biological target: S. aureus GyrB ATPase (Staphylococcus aureus, UniProt P0A0K8)
Experiment: S. aureus GyrB ATPase inhibition (ammonium molybdate/malachite green phosphate detection)
Type: biochemical
Settings: compound concentration of 1 μM
In short: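 E. coli GyrA and S. aureus GyrB (250 pM each) with sheared salmon sperm DNA and 250 μM ATP, pH 7.5 Hepes buffer. Released phosphate detected by malachite green/ammonium molybdate at 650 nm; percent inhibition at 1 μM compound unless noted, normalized to 2% DMSO (0%) and EDTA (100%) controls.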

Sequence of S. aureus GyrB ATPase (P0AES4 whole entry): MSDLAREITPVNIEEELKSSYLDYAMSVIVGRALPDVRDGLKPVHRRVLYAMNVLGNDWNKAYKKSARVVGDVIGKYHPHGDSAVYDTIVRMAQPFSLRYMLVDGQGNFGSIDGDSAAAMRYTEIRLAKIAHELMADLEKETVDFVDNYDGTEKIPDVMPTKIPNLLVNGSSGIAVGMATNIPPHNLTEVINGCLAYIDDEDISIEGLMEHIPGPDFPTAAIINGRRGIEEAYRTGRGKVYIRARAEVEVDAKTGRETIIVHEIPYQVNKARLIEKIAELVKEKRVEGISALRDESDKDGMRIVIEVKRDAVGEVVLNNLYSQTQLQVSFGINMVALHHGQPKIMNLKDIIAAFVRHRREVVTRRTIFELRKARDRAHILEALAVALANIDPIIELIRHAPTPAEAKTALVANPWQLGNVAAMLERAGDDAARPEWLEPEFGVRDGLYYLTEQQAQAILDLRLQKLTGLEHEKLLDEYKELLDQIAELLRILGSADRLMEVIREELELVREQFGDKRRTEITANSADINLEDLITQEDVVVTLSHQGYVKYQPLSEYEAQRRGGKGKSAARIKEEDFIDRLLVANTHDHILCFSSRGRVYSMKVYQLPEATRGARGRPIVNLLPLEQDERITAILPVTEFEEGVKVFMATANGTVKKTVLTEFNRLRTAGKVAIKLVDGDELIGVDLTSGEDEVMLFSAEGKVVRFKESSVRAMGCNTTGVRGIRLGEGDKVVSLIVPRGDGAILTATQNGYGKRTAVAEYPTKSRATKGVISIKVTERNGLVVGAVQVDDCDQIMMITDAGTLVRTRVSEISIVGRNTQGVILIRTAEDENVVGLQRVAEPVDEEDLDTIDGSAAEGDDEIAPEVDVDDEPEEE
Sequence of S. aureus GyrB ATPase (P0A0K8 whole entry): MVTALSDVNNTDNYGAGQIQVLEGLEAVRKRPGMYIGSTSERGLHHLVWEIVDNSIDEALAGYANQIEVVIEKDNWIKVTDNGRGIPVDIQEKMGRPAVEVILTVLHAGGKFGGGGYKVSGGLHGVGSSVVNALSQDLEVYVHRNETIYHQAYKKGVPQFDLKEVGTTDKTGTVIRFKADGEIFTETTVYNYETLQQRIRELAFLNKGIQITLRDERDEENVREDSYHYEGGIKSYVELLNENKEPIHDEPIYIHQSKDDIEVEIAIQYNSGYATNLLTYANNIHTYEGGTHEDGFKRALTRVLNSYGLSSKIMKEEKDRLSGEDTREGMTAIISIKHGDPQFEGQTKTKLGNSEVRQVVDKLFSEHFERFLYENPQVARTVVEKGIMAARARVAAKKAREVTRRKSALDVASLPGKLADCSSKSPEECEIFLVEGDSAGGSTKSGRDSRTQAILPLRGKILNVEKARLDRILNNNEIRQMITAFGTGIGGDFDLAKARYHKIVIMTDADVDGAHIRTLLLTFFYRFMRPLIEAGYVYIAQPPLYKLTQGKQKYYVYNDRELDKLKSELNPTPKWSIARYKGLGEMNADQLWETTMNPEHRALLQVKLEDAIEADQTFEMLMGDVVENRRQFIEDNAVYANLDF

SMILES	inhibition at 1 µM [%]
Cc1[nH]c(C(=O)N[C@@H]2CCN(c3nc(-c4ncccc4F)c(C(=O)O)s3)C[C@@H]2OCc2ccccc2)cc1Cl [Example 149, 2-[(3S,4R)-3-(benzyloxy)-4-{[(4-chloro-5-methyl-1H-pyrrol-2-yl)carbonyl]amino}piperidin-1-yl]-4-(3-fluoropyridin-2-yl)-1,3-thiazole-5-carboxylic acid]	103
COc1ccnc(-c2nc(N3CC[C@@H](NC(=O)c4[nH]c(C)c(Cl)c4Cl)[C@@H](OC)C3)sc2C(=O)O)n1 [Example 42, 2-((3S,4R)-4-{[(3,4-Dichloro-5-methyl-1H-pyrrol-2-yl)carbonyl]amino}-3-methoxypiperidin-1-yl)-4-(4-methoxypyrimidin-2-yl)-1,3-thiazole-5-carboxylic acid]	99.9
Cc1[nH]c(C(=O)N[C@@H]2CCN(c3nc(-c4csc(N)n4)c(C(=O)O)s3)C[C@@H]2F)c(Cl)c1Cl [Example 36, 2′-Amino-2-((3S,4R)-4-{[(3,4-dichloro-5-methyl-1H-pyrrol-2-yl)carbonyl]amino}-3-fluoropiperidin-1-yl)-4,4′-bi-1,3-thiazole-5-carboxylic acid]	99.6
COc1ccnc(-c2nc(N3CC[C@@H](NC(=O)c4[nH]c(C)c(Cl)c4Cl)[C@@H](OC)C3)sc2C(=O)O)c1 [Example 112, 2-((3S,4R)-4-(3,4-dichloro-5-methyl-1H-pyrrole-2-carboxamido)-3-methoxypiperidin-1-yl)-4-(4-methoxypyridin-2-yl)thiazole-5-carboxylic acid]	81.1
COC(=O)c1sc(N2CC[C@@H](NC(=O)c3[nH]c(C)c(Cl)c3Cl)[C@@H](F)C2)nc1-c1ncnn1C [Example 67]	75.2
CO[C@H]1CN(c2nc(-c3ncnn3C)c(C(=O)O)s2)CC[C@H]1NC(=O)c1[nH]c(C)c(Cl)c1Cl [Example 27, 2-((3S,4R)-4-{[(3,4-Dichloro-5-methyl-1H-pyrrol-2-yl)carbonyl]amino}-3-methoxypiperidin-1-yl)-4-(1-methyl-1H-1,2,4-triazol-5-yl)-1,3-thiazole-5-carboxylic acid]	99.9
Cc1cnc(-c2nc(N3CC[C@@H](NC(=O)c4[nH]c(C)c(Cl)c4Cl)[C@@H](F)C3)sc2C(=O)O)cn1 [Example 118, 2-((3S,4R)-4-(3,4-dichloro-5-methyl-1H-pyrrole-2-carboxamido)-3-fluoropiperidin-1-yl)-4-(5-methylpyrazin-2-yl)thiazole-5-carboxylic acid]	92.1
CO[C@H]1CN(c2nc(-c3ccn[nH]3)c(C(=O)O)s2)CC[C@H]1NC(=O)c1[nH]c(C)c(Cl)c1Cl [Example 23, 2-((3S,4R)-4-{[(3,4-Dichloro-5-methyl-1H-pyrrol-2-yl)carbonyl]amino}-3-methoxypiperidin-1-yl)-4-(1H-pyrazol-5-yl)-1,3-thiazole-5-carboxylic acid]	100
CCOC(=O)c1sc(N2CC[C@@H](NC(=O)c3[nH]c(C)c(Cl)c3Cl)[C@@H](OC)C2)nc1-c1nnc(C)o1 [Example 85, Ethyl 2-((3S,4R)-4-{[(3,4-dichloro-5-methyl-1H-pyrrol-2-yl)carbonyl]amino}-3-methoxypiperidin-1-yl)-4-(5-methyl-1,3,4-oxadiazol-2-yl)-1,3-thiazole-5-carboxylate]	102
COC(=O)c1sc(N2CC[C@@H](NC(=O)c3[nH]c(C)c(Cl)c3Cl)[C@@H](F)C2)nc1-c1nccn1C [Example 79]	101
CCOC(=O)c1sc(N2CC[C@@H](NC(=O)c3[nH]c(C)c(Cl)c3Cl)[C@@H](OC)C2)nc1-c1nnco1 [Example 83]	102
Cc1[nH]c(C(=O)N[C@@H]2CCN(c3nc(-c4ncnn4C)c(C(=O)O)s3)C[C@@H]2OCc2ccccc2)c(C#N)c1Cl [Example 151, 2-[(3S,4R)-3-(benzyloxy)-4-{[(4-chloro-3-cyano-5-methyl-1H-pyrrol-2-yl)carbonyl]amino}piperidin-1-yl]-4-(1-methyl-1H-1,2,4-triazol-5-yl)-1,3-thiazole-5-carboxylic acid]	115
